Values of other authors in patent publication US6562842B2, “Protease inhibitors” (SmithKline Beecham Corporation, priority 1995, dated 2003).

Columns and labels:
bone resorption [1] = details: measured by acute changes in serum calcium; rats on calcium deficient diets
bone resorption [2] = details: mouse bone organ culture system
bone resorption [3] = details: mouse calvariae

## CC(C)C[C@H](NC(=O)[C@H]1O[C@@H]1C(=O)O)C(=O)NCCCCN=C(N)N [Example E-64, E-64]
Bone resorption [1]
  prevention of bone resorption in vivo: effective at preventing bone resorption in vivo

## C[C@H](NC(=O)[C@H](Cc1ccccc1)NC(=O)OCc1ccccc1)C(=O)C=[N+]=[N-] [Z-Phe-Ala-CHN2]
Bone resorption [2]
  prevention of bone resorption: prevent bone resorption

## CC(=O)N[C@@H](CC(C)C)C(=O)N[C@@H](CC(C)C)C(=O)N[C@H](C=O)CCCNC(=N)N [leupeptin]
Bone resorption [2]
  prevention of bone resorption: prevent bone resorption
Bone resorption [1]
  prevention of bone resorption in vivo: effective at preventing bone resorption in vivo

## cystatin
Bone resorption [3]
  inhibition of PFH stimulated bone resorption: inhibits PFH stimulated bone resorption
